Experiments:
[1] = tested on: bilateral cystadenocarcinoma of the ovary; test: 1st patient: gallium chloride treatment, tumour response; assay type: in vivo, human
Protocol: Mrs. […] An epiploic and ganglionary invasion was discovered. Cobalt therapy was then carried out from Nov. 5th, 1979 to Feb. […] Treatment by gallium chloride started on Nov. […] An echotomograph on Dec. […] A third echotomograph was made on Jan. […] However, this was refused by the patient. On Mar.

[2] = Clinical, renal and biological tolerance in bitches; assay type: in vivo, female dogs
Protocol: The anti-tumoral effect of gallium chloride was firstly studied in female dogs having spontaneous malignant tumours of the breast. Gallium chloride therapy was carried out in bitches having a mammary cancer (tubulo-pillaryadenocarcinoma or mixed-type tumour); treatment started either at the stage of the primary tumour (4 bitches) or upon a recurrence after a surgical excision (10 bitches).
In the third case, the treatment could be continued for more than six months in a very old bitch of 14 years.
Posology of gallium chloride, per os: 7.5 mg/kg from 15.4.1981 to 14.9.1981, then 10 mg/kg.

[3] = tested on: epidermoid carcinoma of the oesophagus; test: 5th patient: gallium chloride treatment, tumour response; assay type: in vivo, human
Excerpt: A person . . . Michel: the diagnosis of differenciated, mature and infiltrating epidermoid carcinoma of the oesophagus was made on Sept. 3rd, 1981. This was a voluminous tumour, extending from 23 to 32 cm, from the dental arches (according to the data from the endoscopy) with an invasion of the rear face of the origin of the left principal bronchus and the carina tracheae. In the bronchoscopy of Sept. 8th, 1981, there was a necrotic tumoral bud obstructing the light of the bronchus by two-thirds.
Gallium chloride therapy was started on Sept.
A further bronchoscopy was made on Oct. […] The existence of a considerable sub-jacent bronchial stasis and of daily dispnoeic attacks in the evening led to treatment of this bronchial tumour by laser on Oct. 20th, 1981. […] Feeding by the oral route was stopped, as well as the gallium chloride treatment and, after parenteral feeding, a celestine prosthesis was positioned by endoscopic route on Nov. 3rd, 1981. The sequels of the positioning of the prosthesis was marked by the appearance of an infectious bronchial syndrome which led to death of the patient on Nov. 18th, 1981.

[Cl][Ga]([Cl])[Cl] [gallium chloride]
clinical state, end of January 1981 ([1]; 300 mg per day per os): very satisfactory
superficial palpable mass, end of January 1981 ([1]; 300 mg per day per os): had disappeared
volume of the mass of the Douglas pouch, echotomograph Jan. 7th, 1981 ([1]; 300 mg per day per os): clearly decreased
mass of the Douglas pouch, echotomograph Dec. 9th, 1980 ([1]; 300 mg per day per os from Nov. 1st, 1980, 3.5 cm on Oct. 27th): maintained the same diameter
superficial mass / tissue of infiltration, echotomograph Dec. 9th, 1980 ([1]; 300 mg per day per os, 4.4 by 3 cm before treatment): the tissue of infiltration had become a sclerous tissue
death, 1st patient ([1]; after interruption of gallium chloride): death occurred on May 6th, 1981
clinical and biological tolerance, bitches overall ([2]; 5 mg/kg): excellent
clinical and renal tolerance, first bitch (OUD) ([2]; 7.5 mg/kg then 10 mg/kg per os): perfect
clinical and renal tolerance, second bitch (BEL) ([2]; 2.5, 5, then 7 mg/kg per os): perfect
dyspnoea leading to stop of treatment ([2]; dog, in vivo, 5 mg/kg): treatment was stopped for one month due to a dyspnoea
tolerance, bitches ([2]; oral, drinkable ampoules, first bitches 1 mg/kg, particularly digestive): tolerance proved to be good, particularly from the digestive point of view
bronchial obstruction, bronchoscopy Oct. 13th, 1981, 5th patient ([3]; 800 mg/24 hours oral from Sept. 21st, 1981): the same bronchial obstruction
death, 5th patient ([3]; infectious bronchial syndrome after prosthesis, treatment already stopped): death of the patient on Nov. 18th, 1981

From patent publication US4596710A, “Gallium chloride as a new anti-cancerous drug” (priority 1981, dated 1986)
